The results in this text go back to US20250302748A1, “METHOD FOR ENHANCING THE EFFICIENCY OF DRUG LOADING INTO EXTRACELLULAR VESICLES AND MEDICINAL PRODUCTS THEREOF” (Shine-On BioMedical CO., LTD., priority 2024, published 2025).

Where a name gives a salt, the structure may show the parent alone.

For data set [1], the system named is breast cancer cells (MDA-MB-231). Nature of the data set: Orthotopic breast cancer animal model, IVIS luminescence. The following applies: day 49, two weeks after final administration; tail vein injections for six weeks; luminescence converted into tumor volume. Format: in vivo, mice.
Excerpt: Referring to FIG. 9C, a breast cancer animal model was applied to evaluate the efficacy and biocompatibility of exosome 10 loaded with the target drug. In this experiment, the breast cancer animal model was constructed by injecting the breast cancer cells (MDA-MB-231) orthotopically into the mammary fat pad of the mice and then culturing the breast cancer cells into tumor. The mice were divided into drug treatment groups 1 to 3 and control group 1. The breast cancer animal model in drug treatment groups 1 to 3 were received the target drug directly (Dox-HCl), the liposome injection loaded with the target drug Dox-HCl (Dox@Lipo), and the exosomes 10 loaded with the target drug Dox-HCl (Dox@EXO) respectively; the control group 1 is the group treated with a placebo (PBS) (Ctrl).
Each group (groups 1-3 and control group 1) of the breast cancer animal model described above was received tail vein injections continuously for six weeks administration following the injection of breast cancer cells (MDA-MB-231). Tumor development was monitored and imaged using an in vivo imaging system (IVIS Imaging System), which measured tumor progression based on a luminescence signal of the tumor.
Data set [2] can be described thus: Safety study with serum biochemical analysis after third weekly administration. The format is in vivo, Immunocompetent mice. The source says: Furthermore, to confirm that exosome 10 retains its biocompatibility after loading the target drug and is safe for in vivo use, please refer to Table 5, an animal model is applied to evaluate the safety. Immunocompetent mice were divided into control group (Control), vehicle control group (Vehicle control), drug treatment group (Dox), and exosome treatment groups 1-3 (Dox@EXO 1-3). The groups above were weekly administered Lactated Ringer's solution, the exosomes 10, the target drug (Doxorubicin, Dox-HCl), and the exosomes 10 loaded with the target drug Dox-HCl (Dox@EXO) in concentrations of 2 mg/kg, 6 mg/kg, and 12 mg/kg respectively. After receiving the third administration, blood samples were collected for serum biochemical analysis to monitor organ function.

[3] abbreviates: 12 mg/kg weekly, after third administration, serum.

As for `COc1cccc2c1C(=O)c1c(O)c3c(c(O)c1C2=O)C[C@@](O)(C(=O)CO)C[C@@H]3O[C@H]1C[C@H](N)[C@H](O)[C@H](C)O1` [Dox-HCl, Doxorubicin hydrochloride], in data set [1], the “Inhibition rate of tumor growth” value is on record as 73.8%. In addition, in data set [2] (setting [3]), the “ALB (Albumin)” value amounted to 2.68 g/dL, the “ALP (Alkaline Phosphatase)” value is on record as 182.52 U/L, the ALT is recorded as 29.52 U/L and the “AMY (Amylase)” value turned out to be 3424.8 U/L. Further, in data set [2] (setting [3]), the AST is listed as 76.88 U/L, the “CK (Creatine kinase)” value came out at 236.06 U/L and the “LDH (Lactate Dehydrogenase)” value worked out at 648.28 U/L. Also, the “Difference in serum biochemical parameters versus control group (One-way ANOVA)” value in data set [2] (Dox 12 mg/kg, Dox@EXO 2, 6 and 12 mg/kg) was “significant differences in liver function markers such as albumin (ALB) and alkaline phosphatase (ALP)”.
